The results in this text go back to patent US20120101083A1, “S1P1 AGONISTS COMPRISING A BICYCLIC N-CONTAINING RING” (GLAXO GROUP LIMITED, priority 2009, published 2012).

Counter-ions that a name gives are not always drawn. Bounds are passed on as bounds.

The target of test [1] is T1, S1P1 receptor (S1P1 expressing RH7777 membranes) (Homo sapiens, UniProt P21453).
T1 construct: expressed in transfected cells; host or cells: RH7777 cells (membranes)
Description: S1P1 GTPγS assay. To be noted: tested in one of the above S1P1 assays (two GTPγS formats). It is filed as biochemical. The gist of the method:
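Membranes from RH7777 cells expressing human S1P1 (1.5 μg/well) precoupled 30 min on ice to WGA SPA beads in 20 mM HEPES pH 7.4, 10 mM MgCl2, 100 mM NaCl, with 10 μM GDP and 90 μg/ml saponin. [35S]-GTPγS 0.5 nM final added with compound; SPA signal read immediately.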

Test [2] concerns the target T2, S1P1 (PathHunter CHO-K1 EDG1 β-Arrestin cell line) (Homo sapiens, UniProt P21453).
T2 construct: host or cells: PathHunter CHO-K1 EDG1 β-Arrestin cell line
The experiment in a line: S1P-1 β-Arrestin recruitment assay. It is filed as cell-based. To be noted: CHO-K1 EDG1 β-Arrestin cells, chemi-luminescence. The gist of the method:
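CHO-K1 cells expressing S1P1 and β-arrestin 2 fused to complementing β-galactosidase fragments, at 1×10^4 cells/well in pH 7.4 buffer with 0.1% BSA. Compound exposure 90 min at 37 °C then 15 min room temperature; chemiluminescent substrate added for 60 min before luminescence read.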
On the technique in general: Arrestin recruitment assays detect the binding of arrestin to an activated receptor.

T2 sequence (P21453 whole entry): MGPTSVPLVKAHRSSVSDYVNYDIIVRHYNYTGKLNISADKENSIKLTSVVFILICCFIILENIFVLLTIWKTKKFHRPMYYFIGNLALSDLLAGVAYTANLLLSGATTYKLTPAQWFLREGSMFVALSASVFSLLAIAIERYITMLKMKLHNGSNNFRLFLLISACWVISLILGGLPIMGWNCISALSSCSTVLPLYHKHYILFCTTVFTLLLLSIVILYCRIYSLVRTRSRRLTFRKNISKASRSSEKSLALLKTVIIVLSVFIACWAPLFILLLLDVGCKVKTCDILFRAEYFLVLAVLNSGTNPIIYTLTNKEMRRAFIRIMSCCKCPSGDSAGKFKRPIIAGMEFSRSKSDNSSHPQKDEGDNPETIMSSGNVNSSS
T2 sequence (P32121 whole entry partner): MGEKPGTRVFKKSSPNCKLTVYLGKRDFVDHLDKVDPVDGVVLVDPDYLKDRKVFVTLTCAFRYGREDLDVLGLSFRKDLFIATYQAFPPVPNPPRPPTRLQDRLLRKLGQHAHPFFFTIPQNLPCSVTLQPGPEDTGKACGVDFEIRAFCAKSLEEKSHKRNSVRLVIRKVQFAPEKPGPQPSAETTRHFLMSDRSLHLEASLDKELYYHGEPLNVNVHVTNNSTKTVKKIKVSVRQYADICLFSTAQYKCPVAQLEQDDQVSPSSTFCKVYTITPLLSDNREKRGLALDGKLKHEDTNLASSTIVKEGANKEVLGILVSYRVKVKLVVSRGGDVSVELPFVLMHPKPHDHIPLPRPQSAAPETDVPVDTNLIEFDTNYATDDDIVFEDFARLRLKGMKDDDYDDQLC
T1 sequence (P21453 whole entry): as the sequence (P21453 whole entry) above

What is called EC50 is the concentration giving half of the maximal effect. In the case of `Cc1c(-c2noc(-c3ccc(OC(C)C)c(C#N)c3)n2)ccc2c1CCN(CC(=O)NC(CO)CO)C2` [Example 125, 2-[6-(5-{3-cyano-4-[(1-methylethyl)oxy]phenyl}-1,2,4-oxadiazol-3-yl)-5-methyl-3,4-dihydro-2(1H)-isoquinolinyl]-N-[2-hydroxy-1-(hydroxymethyl)ethyl]acetamide hydrochloride], the EC50 in test [1] is no more than 0.1 µM; in test [2], no more than 0.01 µM.
In the case of `CC(C)Oc1ccc(-c2nc(-c3ccc4c(c3)CCN(C(=O)CCN)CC4)no2)cc1C#N` [Example 69, 5-[3-(3-β-alanyl-2,3,4,5-tetrahydro-1H-3-benzazepin-7-yl)-1,2,4-oxadiazol-5-yl]-2-[(1-methylethyl)oxy]benzonitrile], the results for the EC50 in test [1] and in test [2] were no more than 0.1 µM and no more than 0.01 µM, respectively.
In the same order, the values of `Cc1c(-c2noc(-c3ccc(OC(C)C)c(C#N)c3)n2)ccc2c1CCN(C(=O)CNCCO)CC2` [Example 155, 5-(3-{3-[N-(2-hydroxyethyl)glycyl]-6-methyl-2,3,4,5-tetrahydro-1H-3-benzazepin-7-yl}-1,2,4-oxadiazol-5-yl)-2-[(1-methylethyl)oxy]benzonitrile] are 0.001 µM and no more than 0.01 µM.
In the case of `Cc1c(-c2noc(-c3ccc(OC(C)C)c(C#N)c3)n2)ccc2c1CCN(CC(=O)N[C@H](C)CO)CC2` [Example 159], the results for the EC50 in test [1] and in test [2] were no more than 0.1 µM and no more than 0.01 µM, respectively.
Turning to `CC(C)Oc1ccc(-c2nc(-c3ccc4c(c3)CCN(C(=O)CNC[C@H](O)CO)CC4)no2)cc1C#N` [Example 196, 5-[3-(3-{N-[(2S)-2,3-dihydroxypropyl]glycyl}-2,3,4,5-tetrahydro-1H-3-benzazepin-7-yl)-1,2,4-oxadiazol-5-yl]-2-[(1-methylethyl)oxy]benzonitrile hydrochloride], the EC50 is no more than 1 µM in test [1] and no more than 0.1 µM in test [2].
For the molecule `CC(C)Oc1ccc(-c2nc(-c3cccc4c3CCN(C(=O)CN)C4)no2)cc1C#N` [Example 87, 5-[3-(2-glycyl-1,2,3,4-tetrahydro-5-isoquinolinyl)-1,2,4-oxadiazol-5-yl]-2-[(1-methylethyl)oxy]benzonitrile hydrochloride], the EC50 in test [1] and in test [2] was no more than 0.01 µM each time.
For the molecule `CC(C)Nc1ncc(-c2nc(-c3ccc4c(c3)CCN(C[C@H](O)CO)CC4)no2)cc1C#N` [Example 114, 5-(3-{3-[(2S)-2,3-dihydroxypropyl]-2,3,4,5-tetrahydro-1H-3-benzazepin-7-yl}-1,2,4-oxadiazol-5-yl)-2-[(1-methylethyl)amino]-3-pyridinecarbonitrile], the EC50 in test [1] was no more than 1 µM; in test [2], no more than 0.1 µM.
`CC(C)Oc1ccc(-c2nc(-c3ccc4c(c3)CCN(CCCC(N)=O)CC4)no2)cc1C#N` [Example 25, 4-[7-(5-{3-Cyano-4-[(1-methylethyl)oxy]phenyl}-1,2,4-oxadiazol-3-yl)-1,2,4,5-tetrahydro-3H-3-benzazepin-3-yl]butanamide]: the EC50 is no more than 0.1 µM in test [1] and no more than 0.01 µM in test [2].
As to `CNC(=O)CCCN1CCc2c(ccc(-c3noc(-c4ccc(OC(C)C)c(C#N)c4)n3)c2C)C1` [Example 5, 4-[6-(5-{3-Cyano-4-[(1-methylethyl)oxy]phenyl}-1,2,4-oxadiazol-3-yl)-5-methyl-3,4-dihydro-2(1H)-isoquinolinyl]-N-methylbutanamide], the concentration giving a half-maximal response (EC50) in test [1] was no more than 0.1 µM; in test [2], no more than 0.01 µM.
In the case of `COCCN1CCc2c(ccc(-c3noc(-c4ccc(OC(C)C)c(C#N)c4)n3)c2C)C1` [Example 9, 2-[(1-Methylethyl)oxy]-5-(3-{5-methyl-2-[2-(methyloxy)ethyl]-1,2,3,4-tetrahydro-6-isoquinolinyl}-1,2,4-oxadiazol-5-yl)benzonitrile], the concentration giving a half-maximal response (EC50) in test [1] and in test [2] was no more than 0.1 µM throughout.
Take `CNCCC(=O)N1CCc2ccc(-c3noc(-c4ccc(OC(C)C)c(C#N)c4)n3)cc2CC1` [Example 67, 5-{3-[3-(N-methyl-b-alanyl)-2,3,4,5-tetrahydro-1H-3-benzazepin-7-yl]-1,2,4-oxadiazol-5-yl}-2-[(1-methylethyl)oxy]benzonitrile]: the 50% effective concentration (EC50) in test [1] and in test [2] was no more than 0.1 µM each time.
